{"source": "patent US10898592B2", "about": "“Compositions and methods for reducing the risk of post-imaging pancreatitis” (University Of Pittsburgh—Of The Commonwealth System Of …, priority 2015, dated 2021)", "key": {"[1]": {"test_system": "calcineurin (NFAT-luciferase)", "test": "NFAT-luciferase activity assay (calcineurin activation), mouse primary acinar cells", "assay_type": "cell-based", "conditions": "30 min pre-treatment; FK506 24 μM; CsA 16 μM; BAPTA-AM 64 μM", "experimental": "(§1) NFAT-luciferase activity assay. Acinar cells were infected with Ad-NFAT-luciferase following a previously described procedure^10,15,16. The construct includes a luciferase gene placed downstream of an IL-4 promoter which contains nine tandem NFAT binding sites^10. Acinar cells were incubated with the NFAT-driven luciferase adenovirus for 1.5 hr prior to stimulation. All of the stated inhibitors were added for 30 min prior to stimulation with RC. NFAT-luciferase was measured using the luciferase assay system. Briefly, cells were spun at 1,000 rpm for 5 min, washed with PBS, and lysed using reporter lysis 5× buffer (Promega #E397A, Madison, Wis.). Samples were vortexed and spun at 12,000 g for 2 min. Supernatant was plated, and luminescence was measured using a Synergy H1 plate reader (BioTek, Winooski, Vt.) and normalized to total protein."}, "[2]": {"test_system": "calcineurin (NFAT-luciferase)", "test": "NFAT-luciferase activity assay, human acinar cells", "assay_type": "cell-based", "experimental": "as §1"}, "primary acinar cells": {"test_system": "primary acinar cells", "test": "Cell necrosis assay (propidium iodide uptake), primary acinar cells", "assay_type": "cell-based, mouse", "conditions": "6 hr incubation; U73122 5 μM; 2-APB 100 μM; BAPTA 64 μM; IKK-2 20 μM; FK506 24 μM; CsA 16 μM", "experimental": "Cell necrosis assay. Acinar cells were incubated in a 48-well plate with 50 μg/ml of propidium iodide (PI) for 30 min prior to addition of RC. Fluorescence was measured at 536 nm excitation and 617 nm emission wavelengths over time a time course of up to 6 hr. Fluorescence was measured after cell lysis with 0.5% Triton-X 100 was used to normalize the results relative to total DNA."}, "NF-κB": {"test_system": "NF-κB", "test": "NF-κB-luciferase activity assay, AR42J cells", "assay_type": "cell-based", "conditions": "U73122 5 μM; 2-APB 100 μM; BAPTA 64 μM", "experimental": "NF-κB-luciferase activity assay. AR42J cells were differentiated towards an acinar phenotype by administering dexamethasone (100 nM) for 48-72 hr^17. AR42J cells were infected with Ad-NF-κB luciferase 16 h prior to stimulation using a previously described method^12. Following a wash with DMEM/F12 medium, acinar cells were evenly distributed in a 48-well plate and incubated for 30 min at 37° C. They were incubated with RC at varying concentrations and times. NF-κB-luciferase was measured using a commercially available luciferase assay (Promega, Madison, Wis.). Briefly, cells were spun at 1,000 rpm for 5 min, washed with PBS, and lysed using reporter lysis 5× buffer (Promega, catalog no. E397A). Samples were vortexed and spun at 12,000×g for 2 min. The supernatant was plated, and luminescence was measured using a Synergy H1 plate reader (BioTek, Winooski, Vt.) and normalized to total […]."}, "[3]": {"test_system": "calcineurin (NFAT-luciferase)", "test": "NFAT-luciferase activity assay, AR42J cells", "assay_type": "cell-based", "conditions": "pretreatment; FK506 24 μM; CsA 16 μM; U73122 5 μM; 2-APB 100 μM; BAPTA 64 μM", "experimental": "as §1"}}}
{"compound": "CC(=O)OCOC(=O)CN(CC(=O)OCOC(C)=O)c1ccccc1OCCOc1ccccc1N(CC(=O)OCOC(C)=O)CC(=O)OCOC(C)=O", "note": "[BAPTA, BAPTA-AM]", "values": [{"measurement": "effect on RC (9%)-induced rise in NFAT-luciferase", "setting": "[1]", "value": "completely reduced"}, {"measurement": "effect on RC (25%)-induced NFAT-luciferase activity", "setting": "[2]", "value": "prevented"}, {"measurement": "effect on RC (12%)-induced acinar cell injury (PI uptake)", "setting": "primary acinar cells", "value": "prevented"}, {"measurement": "effect on RC-induced NF-κB-luciferase levels", "setting": "NF-κB", "value": "reduced"}, {"measurement": "effect on RC (6%)-induced NFAT-luciferase activity", "setting": "[3]", "value": "prevented"}]}
